{
  "source": "patent US20250367170A1",
  "about": "“TOPICAL ANGIOTENSIN II RECEPTOR BLOCKERS (ARBS) FOR TREATING EYE CONDITIONS” (The Cleveland Clinic Foundation, priority 2022, published 2025)",
  "type_in_all_cases": "in vivo, New Zealand White rabbits",
  "key": {"TGF beta-1": {"system": "TGF beta-1", "experiment": "IHC TGF beta-1 in posterior stroma after Descemetorhexis", "settings": "topical and/or oral losartan", "method": "Duplex immunohistochemistry (IHC) was performed after masking of slides by a researcher not involved in the analysis using previously described methods (de Oliveira et al., 2021) using primary antibodies (Table 2) confirmed by western blotting and IHC to recognize rabbit antigens or isotypic control antibodies (ThermoFisher Scientific, Waltham, MA), and secondary fluorescent tagged antibodies (Table 3).\nThe AB769 (Millipore, Temecula CA) collagen type IV antibody used in this study was generated against purified human and bovine collagen type IV, affinity purified with human and bovine collagen type IV crosslinked to agarose and cross-absorbed by the manufacturer with human and bovine collagens type I, II, III, V and VI to eliminate cross-reactivity. This antibody was shown previously to bind rabbit collagen IV in IHC (Sampaio et al., in press). The keratocan antibody was raised against peptide H2N-[…]-OH (SEQ ID NO:1)."}, "[1]": {"system": "central corneal neovascularization (CNV)", "experiment": "Corneal angiography for central corneal neovascularization after alkali burn", "settings": "topical six times per day, one month, all four vehicle corneas positive", "method": "Alkali injuries were produced in one eye of rabbits with previously published methods^10 using 1N sodium hydroxide (Sigma, St. Louis, MO) in balanced salt solution (BSS, 0.64% sodium chloride, 0.075% potassium chloride, 0.048% calcium chloride dihydrate, 0.03% magnesium chloride hexahydrate, 0.39% sodium acetate trihydrate, 0.17% sodium citrate dihydrate, pH 7.5, Alcon, Ft. Worth, TX) and a 5 mm diameter circular Whatman No. 1 filter paper (Cat #1001-6508, Fisher Scientific) wetted with 100 μl of 1N NaOH solution. Following the alkali burn injury, the cornea was irrigated profusely with BSS. Each injured cornea also received one drop of ciprofloxacin (Alcon, Ft. Worth, TX, USA) ten minutes after surgery and four times a day for one week and at least 15 minutes apart from the study medications.\nWorth TX), at least 5 minutes apart, or 4) 50 μl of BSS.\nAll corneas had fluorescent angiography at the peak of dye passage in the cornea immediately after injection of 1.5 ml of 10% sodium fluorescein (McKesson, Irvine, TX) in the central ear vein with the slit lamp system and digital camera system using a “barrier filter” that only transmitted 520-530 nm, the peak of fluorescein emission, with broad illumination of the cornea, as previously described.^11"}, "[2]": {"system": "α-SMA-positive myofibroblasts", "experiment": "IHC for α-SMA-positive myofibroblasts, area and intensity (ImageJ) after alkali burn", "settings": "one month", "method": "One month after exposure and topical treatment, rabbits were euthanized after ketamine-xylazine general anesthesia with 100 mg/kg Beuthanasia (Shering-Plough, Kenilworth, NJ) by intravenous injection and bilateral pneumothorax. The corneo-scleral rims of eyes were removed with sharp Westcott scissors (Fairfield, CT, USA) and 0.12 forceps (Storz, St. Louis, MO). The cornea was centered in a 24×24×5 mm mold (Fisher Scientific, Pittsburgh, PA, USA) that was filled with OCT compound (Sakura Finetek, Torrance, CA, USA) and quick frozen on dry ice. Blocks were stored at −80° C. until sectioning. […]\nThe area of the α-SMA-positive stroma in mm^2 and the total α-SMA opacity in pixels were quantitated using standardized images obtained with a 10× objective on a Leica DM6B upright microscope equipped with an automated stage and Leica 7000 T camera using the LAS X software (Leica Microsystems, GmbH, Wetzlar, Germany). The means of three central corneal sections were analyzed from each cornea to provide the area of α-SMA-positive stroma and the total α-SMA opacity. […] In these same sections for each cornea, the total α-SMA-positive intensity in pixels was also determined with ImageJ, similarly by using the summation if separate α-SMA-positive areas were present."}, "collagen type IV": {"system": "collagen type IV", "experiment": "IHC collagen type IV intensity in anterior and posterior stroma after alkali burn", "settings": "one month", "method": "Multiplex immunohistochemistry (IHC) was performed using previously described methods^8 and primary antibodies (Table 7) confirmed by western blotting and IHC to recognize rabbit antigens or isotypic control antibodies (Thermo Fisher Scientific, Waltham, MA), and secondary fluorescent tagged antibodies (Table 7). The collagen type IV antibody (Cat. #AB769, Millipore, Temecula CA) was raised against purified human and bovine collagen type IV that had been affinity purified with human and bovine collagen type IV crosslinked to agarose and cross-absorbed by the manufacturer with human and bovine collagens type I, II, III, V and VI to eliminate cross-reactivity. This collagen type IV antibody was shown previously to bind rabbit collagen IV in IHC,^8,9 and recognizes the alpha-1/alpha-2 chains but not the alpha-3 to alpha-6 chains. The keratocan antibody is raised against peptide […]-OH (SEQ ID NO:1). This marker was used to identify keratocytes in situ. […] All corneas in each group had IHC for collagen type IV. Images from each cornea were converted to uniform 300 DPI, 875×568 pixel, files. […] The staining intensity within each box was determined with the analyze histogram function and the mean of three boxes was the intensity value in the anterior or posterior stroma for that cornea."}},
  "data": [
    {"smiles": "CCCCc1nc(Cl)c(CO)n1Cc1ccc(-c2ccccc2-c2nn[nH]n2)cc1", "note": "[losartan]", "values": [
      {"measurement": "levels of TGF beta-1 in the posterior stroma or at the posterior stromal surface vs vehicle", "setting": "TGF beta-1", "value": "No effect"},
      {"measurement": "corneas (of four) that developed central corneal neovascularization", "setting": "[1]", "value": "two"},
      {"measurement": "total α-SMA area vs vehicle control group", "setting": "[2]", "value": "trend towards the losartan group being significantly different"},
      {"measurement": "COL IV staining intensity in the posterior stroma vs vehicle", "setting": "collagen type IV", "value": "significantly different"},
      {"measurement": "mean intensity units of collagen type IV in the anterior stroma vs vehicle", "setting": "collagen type IV", "value": "significantly decreased"}
    ]}
  ]
}
